For one test, the target named is PKA (Homo sapiens, UniProt P17612). The test can be described thus: PKA inhibition assay, coupled enzyme. In kind it is biochemical. The settings on record: average Ki if more than one determined. The gist of the method: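 Coupled PK/LDH assay following NADH depletion: 18 nM PKA, 50 μM ATP, 80 μM Kemptide in 100 mM HEPES pH 7.5, 10 mM MgCl2, 25 mM NaCl, 1 mM DTT, 3% DMSO, at 30 °C. Compound preincubated 10 min before ATP start; initial rates over 15 min, IC50 and Ki by non-linear regression.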

For the next test, the target named is ROCK I (AA 6-553) (Homo sapiens, UniProt Q13464). The test can be described thus: ROCK inhibition assay, coupled enzyme system ("Enzyme"). In kind it is biochemical. The note with it: enzyme-linked assay; average Ki if more than one determined. The procedure: Reactions were carried out in a solution containing 100 mM HEPES (pH 7.5), 10 mM MgCl2, 25 mM NaCl, 2 mM DTT and 1.5% DMSO.
Chain of ROCK I (AA 6-553) (Q13464 6-553, species assumed): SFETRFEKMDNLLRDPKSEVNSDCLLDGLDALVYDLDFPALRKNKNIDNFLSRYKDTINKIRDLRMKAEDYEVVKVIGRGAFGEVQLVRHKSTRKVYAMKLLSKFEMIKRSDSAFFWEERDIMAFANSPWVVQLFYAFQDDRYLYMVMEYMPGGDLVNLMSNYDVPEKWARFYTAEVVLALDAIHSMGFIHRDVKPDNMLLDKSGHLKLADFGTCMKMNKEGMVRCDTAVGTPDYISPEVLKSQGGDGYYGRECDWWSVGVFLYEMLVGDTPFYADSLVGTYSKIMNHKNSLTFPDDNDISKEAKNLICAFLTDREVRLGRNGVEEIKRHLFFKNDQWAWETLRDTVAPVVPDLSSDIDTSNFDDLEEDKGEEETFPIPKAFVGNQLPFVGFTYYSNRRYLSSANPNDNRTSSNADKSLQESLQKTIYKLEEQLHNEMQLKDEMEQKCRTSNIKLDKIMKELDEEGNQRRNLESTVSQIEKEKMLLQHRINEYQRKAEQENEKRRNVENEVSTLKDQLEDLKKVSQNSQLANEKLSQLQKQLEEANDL
If more than one value of Ki has been determined, the average Ki is indicated. If no value is indicated, then the Ki was not determined.

SMILES strings stand for the structures.

Broadly, the Ki is a measure of affinity in units of concentration, obtained from inhibition or displacement. Turning to `COc1cccc(CC(=O)Nc2nc(-c3c[nH]c4ncc(Br)cc34)cs2)c1` [II-77], the Ki on PKA is 500 to 5000 nM; at ROCK I (AA 6-553), under 500 nM.
For the compound `CS(=O)(=O)Nc1cccc(CC(=O)Nc2nc(-c3c[nH]c4ncc(Br)cc34)cs2)c1` [II-78], the Ki at PKA is 500 to 5000 nM; at ROCK I (AA 6-553) it was under 500 nM.
For the compound `O=C(NCc1cccc(S(=O)(=O)N2CCOCC2)c1)c1cc(-c2c[nH]c3ncccc23)cs1` [II-80], the values for the Ki at PKA and on ROCK I (AA 6-553) were 500 to 5000 nM and under 500 nM, respectively.
In the case of `O=C(Nc1csc(-c2c[nH]c3ncccc23)n1)c1ccccc1` [II-81], the Ki on PKA is 500 to 5000 nM; on ROCK I (AA 6-553), under 500 nM.
For `CS(=O)(=O)Nc1ccc(F)c(CC(=O)Nc2nc(-c3c[nH]c4ncccc34)cs2)c1` [II-82], the inhibitory constant (Ki) at PKA and on ROCK I (AA 6-553) was under 500 nM throughout.
On to `O=C(Cc1cccc(OCCCN2CCNCC2)c1)N(c1nc(-c2c[nH]c3ncccc23)cs1)C1CC1` [II-83], for which the Ki on PKA is 500 to 5000 nM; at ROCK I (AA 6-553), under 500 nM.
Consider `CN1CCN(CCCOc2cccc(CC(=O)N(c3nc(-c4c[nH]c5ncccc45)cs3)C3CC3)c2)CC1` [II-84], for which the results for the Ki at PKA and at ROCK I (AA 6-553) were 500 to 5000 nM and under 500 nM, respectively.
Take `O=C(Cc1cccc(OCCN2CCNCC2)c1)N(c1nc(-c2c[nH]c3ncccc23)cs1)C1CC1` [II-85]: the inhibition constant Ki at PKA and at ROCK I (AA 6-553) was under 500 nM each time.
Turning to `CN1CCN(CCOc2cccc(CC(=O)N(c3nc(-c4c[nH]c5ncccc45)cs3)C3CC3)c2)CC1` [II-86], the Ki was 500 to 5000 nM at PKA and under 500 nM on ROCK I (AA 6-553).
For `O=C(Cc1cccc(S(=O)(=O)N2CCOCC2)c1)N(c1nc(-c2c[nH]c3ncccc23)cs1)C1CC1` [II-87], in that order: under 500 nM and under 500 nM.
In the case of `O=C(Cc1cc2c(cc1Cl)OCO2)N(c1nc(-c2c[nH]c3ncccc23)cs1)C1CC1` [II-88], the Ki on PKA and on ROCK I (AA 6-553) was under 500 nM throughout.
Turning to `CC(C)N1CCN(S(=O)(=O)c2cccc(CC(=O)Nc3nc(-c4c[nH]c5ncccc45)cs3)c2)CC1` [II-89], the Ki at PKA was 500 to 5000 nM; at ROCK I (AA 6-553), under 500 nM.
As for `CN(C)CCN(C)S(=O)(=O)c1cccc(CC(=O)Nc2nc(-c3c[nH]c4ncccc34)cs2)c1` [II-90], the Ki on PKA and at ROCK I (AA 6-553) was under 500 nM each time.
As to `O=C(Cc1ccccc1)Nc1nc(-c2c[nH]c3nccc(Cl)c23)cs1` [II-91], the Ki on PKA and on ROCK I (AA 6-553) was under 500 nM each time.
As to `COc1cccc(CC(=O)Nc2nc(-c3c[nH]c4nccc(Cl)c34)cs2)c1` [II-92], the Ki on PKA and at ROCK I (AA 6-553) was under 500 nM each time.
On to `CCN(CC)S(=O)(=O)c1cccc(CC(=O)Nc2nc(-c3c[nH]c4nccc(Cl)c34)cs2)c1` [II-93], for which the Ki at PKA and at ROCK I (AA 6-553) was 500 to 5000 nM in each case.
On to `CS(=O)(=O)Nc1cccc(CC(=O)Nc2nc(-c3c[nH]c4nccc(Cl)c34)cs2)c1` [II-94], for which the Ki on PKA and on ROCK I (AA 6-553) was under 500 nM throughout.
For `O=C(Cc1cccc(OCCCC2CCNCC2)c1)Nc1nc(-c2c[nH]c3nccc(Cl)c23)cs1` [II-95], the Ki on PKA and on ROCK I (AA 6-553) was under 500 nM in each case.
For `COc1cccc(C2CCCN(c3nc(-c4c[nH]c5ncccc45)cs3)C2=O)c1` (stereo not drawn) [II-96], the Ki on PKA and on ROCK I (AA 6-553) was under 500 nM throughout.
With `CN(C)CCNS(=O)(=O)c1cccc(CC(=O)Nc2nc(-c3c[nH]c4ncccc34)cs2)c1` [II-97], the Ki at PKA and on ROCK I (AA 6-553) was under 500 nM each time.
On to `Cc1sc(NC(=O)Cc2ccccc2)nc1-c1c[nH]c2ncccc12` [II-98], for which the results for the Ki on PKA and on ROCK I (AA 6-553) were 500 to 5000 nM and under 500 nM, respectively.
For `COc1cccc(CC(=O)Nc2nc(-c3c[nH]c4ncccc34)c(C)s2)c1` [II-99], the Ki on PKA was 500 to 5000 nM; at ROCK I (AA 6-553), under 500 nM.
Taken in the same sequence, the figures for `Cc1sc(NC(=O)Cc2cccc(NS(C)(=O)=O)c2)nc1-c1c[nH]c2ncccc12` [II-100] were 500 to 5000 nM and under 500 nM.
As to `Cc1sc(NC(=O)Cc2cccc(S(=O)(=O)N3CCOCC3)c2)nc1-c1c[nH]c2ncccc12` [II-101], the Ki on PKA and at ROCK I (AA 6-553) was 500 to 5000 nM throughout.
